In PMC6424957 (Scientific Reports, 2019):
Read-outs that look alike come from different tables or passages of the source.

How the values were obtained:
[1] = biological target: T1, porcine liver carboxylesterase (CaE) (Sus scrofa, UniProt Q29550); assay: CaE inhibition (4-nitrophenyl acetate hydrolysis); format: biochemical; conditions: for % inhibition of CaE at 20 µM / inhibition at 20 µM: mean ± SEM, n ≥ 3, n.a. = not active at 20 µM; for IC50: read-out: IC50 CaE
T1 sequence (Q29550 19-566): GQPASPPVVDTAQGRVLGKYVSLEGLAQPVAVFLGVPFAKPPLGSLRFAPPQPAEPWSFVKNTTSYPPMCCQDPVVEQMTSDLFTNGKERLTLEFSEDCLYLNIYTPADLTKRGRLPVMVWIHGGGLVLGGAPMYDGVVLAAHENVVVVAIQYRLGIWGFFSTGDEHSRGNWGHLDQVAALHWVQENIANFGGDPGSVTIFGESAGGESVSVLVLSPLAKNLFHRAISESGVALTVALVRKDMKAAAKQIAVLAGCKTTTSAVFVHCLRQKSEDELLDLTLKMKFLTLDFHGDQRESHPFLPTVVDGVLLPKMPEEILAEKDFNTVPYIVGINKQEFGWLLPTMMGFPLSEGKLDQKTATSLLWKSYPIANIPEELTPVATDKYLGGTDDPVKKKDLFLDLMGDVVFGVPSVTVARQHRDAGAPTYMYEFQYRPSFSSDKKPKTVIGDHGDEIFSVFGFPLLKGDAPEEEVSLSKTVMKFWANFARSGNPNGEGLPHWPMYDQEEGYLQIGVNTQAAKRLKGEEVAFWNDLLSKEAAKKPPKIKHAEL
Experimental: (§1) Acetylcholinesterase (AChE, EC 3.1.1.7, from human erythrocyte and E. electricus (EeAChE) (type VI-S), butyrylcholinesterase (BChE, EC 3.1.1.8, from equine serum), carboxylesterase (CaE, EC 3.1.1.1, from porcine liver), acetylthiocholine iodide (ATCh), butylthiocholine iodide (BTCh), 5,5′-dithiobis-(2-nitrobenzoic acid) (DTNB), 4-nitrophenyl acetate (4-NPA), were purchased from Sigma-Aldrich (Germany).
(§2) AChE and BChE activities were measured by the Ellman method as described earlier. The assay solution consisted of 0.1 M K/Na phosphate buffer pH 7.5, 25 °C with the addition of 0.33 mM DTNB, 0.02 unit/mL of AChE or BChE, and 1 mM of substrate (ATCh or BTCh, respectively). The assays were carried out with a reagent blank containing all components except AChE or BChE to account for non-enzymatic hydrolysis of substrate. In addition, an enzyme blank was included that contained all components except substrate to account for non-substrate sulfhydryl groups. […] The assay solution consisted of 0.1 M K/Na phosphate buffer pH 8.0, 25 °C with the addition of 1 mM 4-nitrophenyl acetate and 0.02 unit/mL of CaE. Assays were carried out with a blank containing all components except CaE.
(§3) The test compounds were dissolved in DMSO; the incubation mixture contained 2% (v/v) of the solvent. […] The test compounds were added to the assay solution and preincubated at 25°C with the enzymes for 5 min followed by the addition of substrate. A parallel control was made for the assay solution with no inhibitor. […] Each experiment was performed three times. The results were expressed as the mean ± SEM. The reaction rates in the presence and absence of inhibitor were compared, and the percent of residual enzyme activity due to the presence of test compounds was calculated.

[2] = biological target: T2, Electrophorus electricus AChE (EeAChE) (Electrophorus electricus, UniProt O42275); assay: biochemical; format: biochemical
T2 construct: from human erythrocyte and E. electricus (EeAChE) (type VI-S); purchased Sigma-Aldrich (Germany) type VI-S; host or cells: Electrophorus electricus tissue
Experimental: as §1, §2, §3

[3] = biological target: T3, human erythrocyte acetylcholinesterase (AChE) (Homo sapiens, UniProt P22303); assay: biochemical; format: biochemical; conditions: mean ± SEM, n ≥ 3
T3 construct: Acetylcholinesterase (AChE, EC 3.1.1.7, from human erythrocyte); purchased Sigma-Aldrich (Germany); host or cells: human erythrocytes
Experimental: as §1, §2, §3

[4] = biological target: T4, equine serum butyrylcholinesterase (BChE) (Equus caballus, UniProt P81908); assay: biochemical; format: biochemical; conditions: mean ± SEM, n ≥ 3
T4 construct: butyrylcholinesterase (BChE, EC 3.1.1.8, from equine serum); purchased Sigma-Aldrich (Germany); host or cells: equine serum
Experimental: as §1, §2, §3

[5] = biological target: T5, BChE from equine serum (Equus caballus, UniProt P81908); format: biochemical; conditions: for αKi (non-competitive component), BChE / Ki: Lineweaver-Burk analysis; for Ki: read-out: Ki (competitive component), BChE
T5 construct: butyrylcholinesterase (BChE, EC 3.1.1.8, from equine serum); purchased Sigma-Aldrich (Germany); host or cells: equine serum
Experimental: (§4) To elucidate the inhibition mechanisms for the active compounds, the AChE and BChE residual activity was determined in the presence of 3 increasing concentrations of the test compounds and 6 decreasing concentrations of the substrates. The test compounds were preincubated with the enzymes at 25 °C for 5 min, followed by the addition of the substrates. Parallel controls were made for an assay of the rate of hydrolysis of the same concentrations of substrates in the solutions with no inhibitor. […] Each experiment was performed three times.

[6] = biological target: T6, AChE from human erythrocytes (Homo sapiens, UniProt P22303); format: biochemical; conditions: for αKi (non-competitive component), AChE / Ki: Lineweaver-Burk analysis; for Ki: read-out: Ki (competitive component), AChE
T6 construct: Acetylcholinesterase (AChE, EC 3.1.1.7, from human erythrocyte); purchased Sigma-Aldrich (Germany); host or cells: human erythrocytes
Experimental: as §4

[7] = cited from earlier work
[8] = system: isolated rat liver mitochondria; assay: Restoration of mitochondrial membrane potential after rotenone-induced depolarization; format: biochemical; conditions: 3 μM compound
Source text: Therefore, we examined the ability of MB, MBH2, and compound 3 to restore membrane potential after depolarization with rotenone. […] It is important to note that successive additions of calcium and the uncoupler carbonyl cyanide m-chlorophenyl hydrazone (CCCP) each caused mitochondrial depolarization (Fig. 6). […]

[9] = mean ± SEM, n ≥ 3, read-out: EeAChE IC50
[10] = Lineweaver-Burk plots, changes in Vmax and Km

T3 sequence (P22303 32-617 isoform P22303-2 limits assumed): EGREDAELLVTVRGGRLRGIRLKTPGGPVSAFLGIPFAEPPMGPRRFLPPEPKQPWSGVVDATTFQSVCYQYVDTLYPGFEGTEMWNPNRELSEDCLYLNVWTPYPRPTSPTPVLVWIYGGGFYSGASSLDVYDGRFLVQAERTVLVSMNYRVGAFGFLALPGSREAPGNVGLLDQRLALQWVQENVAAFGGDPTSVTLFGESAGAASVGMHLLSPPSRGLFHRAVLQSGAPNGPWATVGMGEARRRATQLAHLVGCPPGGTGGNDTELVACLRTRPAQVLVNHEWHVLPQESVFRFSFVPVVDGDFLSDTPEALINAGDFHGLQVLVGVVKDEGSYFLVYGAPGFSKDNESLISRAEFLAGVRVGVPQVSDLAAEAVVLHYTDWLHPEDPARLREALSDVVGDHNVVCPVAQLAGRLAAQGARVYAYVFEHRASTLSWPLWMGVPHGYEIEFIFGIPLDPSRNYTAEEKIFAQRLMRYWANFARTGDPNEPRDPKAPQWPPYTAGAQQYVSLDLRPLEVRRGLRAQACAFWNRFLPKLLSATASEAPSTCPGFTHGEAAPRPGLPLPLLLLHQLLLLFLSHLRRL
T6 sequence (P22303 32-617 isoform P22303-2 limits assumed): as above
T4 sequence (P81908 whole entry): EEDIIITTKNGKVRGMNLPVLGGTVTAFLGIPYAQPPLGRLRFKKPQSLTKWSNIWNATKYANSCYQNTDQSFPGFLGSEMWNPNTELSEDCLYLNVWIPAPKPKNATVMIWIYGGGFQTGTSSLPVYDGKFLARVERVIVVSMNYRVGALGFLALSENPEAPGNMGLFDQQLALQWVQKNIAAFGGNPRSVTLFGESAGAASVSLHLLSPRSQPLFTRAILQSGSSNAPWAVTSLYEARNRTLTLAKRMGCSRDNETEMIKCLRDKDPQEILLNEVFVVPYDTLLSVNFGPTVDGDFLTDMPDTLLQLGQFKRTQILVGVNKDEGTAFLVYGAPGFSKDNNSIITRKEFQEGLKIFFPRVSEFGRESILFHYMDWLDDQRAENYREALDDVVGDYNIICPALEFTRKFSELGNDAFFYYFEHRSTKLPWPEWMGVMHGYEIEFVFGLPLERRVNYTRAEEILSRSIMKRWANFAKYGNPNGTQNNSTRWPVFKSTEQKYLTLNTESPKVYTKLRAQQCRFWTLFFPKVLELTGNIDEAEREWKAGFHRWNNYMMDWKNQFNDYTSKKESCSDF
T5 sequence (P81908 whole entry): as above
T2 sequence (O42275 24-633): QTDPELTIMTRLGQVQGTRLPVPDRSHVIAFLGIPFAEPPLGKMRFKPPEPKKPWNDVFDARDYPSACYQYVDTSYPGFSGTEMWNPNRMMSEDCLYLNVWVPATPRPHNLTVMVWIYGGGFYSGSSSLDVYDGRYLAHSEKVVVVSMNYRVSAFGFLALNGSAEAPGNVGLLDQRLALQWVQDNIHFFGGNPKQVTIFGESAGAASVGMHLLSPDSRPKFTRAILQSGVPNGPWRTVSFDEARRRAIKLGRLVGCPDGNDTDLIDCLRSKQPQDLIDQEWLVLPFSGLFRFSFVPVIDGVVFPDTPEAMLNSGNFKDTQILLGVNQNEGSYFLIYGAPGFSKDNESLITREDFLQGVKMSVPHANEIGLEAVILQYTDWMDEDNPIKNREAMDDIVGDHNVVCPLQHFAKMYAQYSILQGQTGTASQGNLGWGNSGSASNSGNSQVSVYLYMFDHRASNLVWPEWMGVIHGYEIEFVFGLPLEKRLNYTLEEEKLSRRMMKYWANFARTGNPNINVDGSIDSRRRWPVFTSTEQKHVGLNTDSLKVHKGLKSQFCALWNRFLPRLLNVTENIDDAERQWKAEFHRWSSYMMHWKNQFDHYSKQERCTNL

Row | SMILES | % inhibition of CaE at 20 µM [1] [%] | IC50 [1] [µM] | IC50 [2, 9] [µM] | IC50 [3] [µM] | IC50 [4] [µM] | αKi (non-competitive component), BChE [5] [µM] | Ki [5] [µM] | αKi (non-competitive component), AChE [6] [µM] | Ki [6] [µM] | inhibition at 20 µM [1] [%] | redox potential [7] [mV] | IC50 [2] [µM] | recovery of ΔΨm after rotenone-induced depolarization [8] | type of BChE inhibition [5, 10] | type of AChE inhibition [6, 10]
1 | Cc1ccc2c(c1)c1c(n2CCC(=O)N2c3ccc(N(C)C)cc3Sc3cc(N(C)C)ccc32)CCN(C(C)C)C1.Cl.Cl.Cl [Compound 6] | 19.5 ± 1.8 | > 20 | 1.07 ± 0.08 | 7.37 ± 0.42 | 0.97 ± 0.05 | 2.64 ± 0.24 | 0.53 ± 0.04 | 13.4 ± 1.2 | 3.52 ± 0.29 | – | – | – | – | – | –
2 | CCN1CCc2c(c3ccccc3n2CCC(=O)N2c3ccc(N(C)C)cc3Sc3cc(N(C)C)ccc32)C1.Cl.Cl.Cl [Compound 2] | 18.1 ± 1.7 | > 20 | 0.67 ± 0.04 | 2.95 ± 0.07 | 2.53 ± 0.22 | – | – | – | – | – | – | – | – | – | –
3 | CN(C)c1ccc2nc3ccc(=[N+](C)C)cc-3sc2c1 [MB, methylene blue, reference compound] | – | > 20 | – | – | 11.1 ± 0.1 | – | – | – | – | 12.3 | 11 | 0.21 ± 0.02 | recovered | – | –
4 | CCN1CCc2c(c3cc(C)ccc3n2CCC(=O)N2c3ccc(N(C)C)cc3Sc3cc(N(C)C)ccc32)C1.Cl.Cl.Cl [Compound 4] | 15.7 ± 1.8 | > 20 | 0.65 ± 0.05 | 4.03 ± 0.36 | 17.9 ± 1.4 | – | – | – | – | – | – | – | – | – | –
5 | Cc1ccc2c(c1)c1c(n2CCC(=O)N2c3ccc(N(C)C)cc3Sc3cc(N(C)C)ccc32)CCN(C)C1 [Compound 3] | – | > 20 | 1.47 ± 0.08 | 1.73 ± 0.11 | 1.82 ± 0.14 | 2.09 ± 0.19 | 0.37 ± 0.03 | 3.35 ± 0.31 | 0.88 ± 0.07 | 26 | – | – | recovered | mixed-type inhibition | mixed-type inhibition
6 | CN1CCc2c(c3cc(F)ccc3n2CCC(=O)N2c3ccc(N(C)C)cc3Sc3cc(N(C)C)ccc32)C1 [Compound 7] | – | > 20 | 2.09 ± 0.19 | 6.86 ± 0.32 | 10.5 ± 0.9 | – | – | – | – | 13.8 | – | – | – | – | –
7 | CCCN1CCc2c(c3cc(C)ccc3n2CCC(=O)N2c3ccc(N(C)C)cc3Sc3cc(N(C)C)ccc32)C1.Cl.Cl.Cl [Compound 5] | 9.8 ± 1.4 | > 20 | 0.8 ± 0.07 | 3.95 ± 0.21 | 8.42 ± 0.83 | – | – | – | – | – | – | – | – | – | –
8 | CN(C)c1ccc2c(c1)Sc1cc(N(C)C)ccc1N2 [MBH2, leucomethylene blue, reference compound] | – | > 20 | – | 1.76 ± 0.09 | 10.7 ± 0.2 | – | – | – | – | 17.2 | – | 0.28 ± 0.02 | recovered | – | –
9 | CN1CCc2c(c3ccccc3n2CCC(=O)N2c3ccc(N(C)C)cc3Sc3cc(N(C)C)ccc32)C1.Cl.Cl.Cl [Compound 1] | 21.5 ± 2.3 | > 20 | 0.83 ± 0.03 | 3.17 ± 0.13 | 5.94 ± 0.55 | – | – | – | – | – | – | – | – | – | –
